Results published in patent publication US20240150339A1, “Compounds and Their Use as PDE4 Activators” (Mironid Limited, priority 2021, published 2024).
Blank lines part the entries; values can stand above or below the compound they belong to.

Tests used:
m-IMCD3 cells = assay: Inhibition of PGE2-stimulated in vitro cyst formation in 3D culture of m-IMCD3 cells; type: cell-based, mouse; conditions: Mus musculus, mIMCD3, 144 h; 10 μM test compound; mean cyst area (%) compared to 100% for (DMSO + PGE2) and 0% for DMSO control; 100 nM PGE2; 6 days; read-out: % Cyst area after incubation with 10 μM test compound
In short: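 Mouse m-IMCD3 cells grown in 3D collagen I/Matrigel gels. From 18-24 h after plating, compound (0.1% DMSO) plus 100 nM PGE2 were added and replenished at 2-3 days. After 6 days, imaging gave mean cyst area, scaled to 100% for DMSO+PGE2 and 0% for DMSO alone.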

PDE4D5 = target: T1, PDE4D5 (Homo sapiens, UniProt Q08499); assay: PDE assay, activation of full-length human PDE4D5 long form ([3H]cAMP radio-assay); type: biochemical; conditions: for activation at 30 µM: 30 μM test compound, mean % increase in counts over basal activity
T1 construct: Using Full-Length Human PDE4 Isoforms: Long Forms PDE4D5, PDE4C3, PDE4B1 and Short Form PDE4B2; made in house; cytosol fraction of the cell lysate, not purified
Source text: Experiment 1: Measurement of Modulation of Enzyme Activity by PDE4 Long Form Activators of the Present Invention Using Full-Length Human PDE4 Isoforms: Long Forms PDE4D5, PDE4C3, PDE4B1 and Short Form PDE4B2
(Marchmont, R. J. and Houslay, M. D. Biochem. J. 187: 381-92, 1980)
For transient transfection of exogenous PDE4 long isoforms, HEK 293 cells were transfected with pcDNA3.1 or pDEST™ PDE4 expression vectors using Lipofectamine LTX/Plus reagent (Invitrogen) as outlined by the manufacturer.
Where stable cell lines were generated the clonal isolates were expanded to obtain cell lines that stably expressed the full-length human PDE4 long isoforms and the full length human PDE4B2 short isoform. These were called the HEK-PDE4D5, HEK-PDE4B1 and HEK-PDE4B2 cell lines, respectively.
HEK-PDE4D5 cells were seeded out in 100 mm plates and incubated at 37° C. in an atmosphere of 5% CO2, 95% air. Cell lysates were prepared using KHEM buffer [50 mM KCl, 10 mM EGTA, 50 mM HEPES (pH 7.2), 1.92 mM MgCl2].
To prepare the cell lysates, the 100 mm plates containing the cells were placed on ice and washed with ice-cold PBS (phosphate buffered saline, pH 7.4). KHEM buffer (500 μl) was added to the cells. Cells were then scraped off the plate and triturated using a needle (BD Microlance™ 0.8, 40 mm). The lysed cells were then centrifuged at 2000 rpm for 10 minutes to remove cell debris and the supernatant (cell lysate containing recombinant PDE4D5) was transferred to a fresh tube and kept on ice.
The cell lysate containing recombinant PDE4D5 was transferred into a centrifuge tube and placed into an ultracentrifuge (BECKMAN COULTER) and spun at high speed (100,000 g) for 30 minutes at 4° C. The cytosol fraction was then collected and its protein amount determined using a BCA protein assay.
PDE assays were performed in thin walled V-bottomed 96-well plates. The assays were performed at a final concentration of 10 mM Tris/5 mM MgCl2 μlus PDE4D5 cell lysate cytosol fraction, containing over-expressed PDE4D5, with and without test compound. The lysate/compound mix were incubated together for 15 min at room temperature on an orbital shaker prior to addition of [^3H] cAMP (final concentration 1 μM [^3H] cAMP; Perkin Elmer) to a final volume of 50 μl per reaction. The reactions were then incubated for 10 minutes at 30° C., terminated by heating for 2 min at 95° C. and allowed to cool. Snake venom (12.5 μl of 1 mg/ml; Crotalus atrox, Sigma) was then added and the plates were agitated and incubated for a further 15 minutes at 30° C. Dowex ion exchange resin (Sigma, chloride form, 200-400 mesh; 200 μl; prepared as a 1:1 Dowex: water stock, thoroughly re-suspended and diluted 2:1 with ethanol) was then added to each well and the plates incubated for 15 min at room temperature on an orbital shaker ensuring sufficient agitation for resin suspension (550 RPM). The reaction mixture was then transferred to a 96 well filter plate (Millipore; […] pore size) and filtered into a receiving 96-well plate to remove the dowex suspension. 30 μL of the filtered solution was then transferred to the wells of an Opti-plate (Perkin Elmer) 96 well assay plate and 120 μl of Microscint 40 scintillation fluid was added. The plate was then placed on an orbital shaker for 10 min at high speed (900 RPM) to mix the sample with scintillation fluid prior to quantitation using a plate based scintillation counter (Top-Count).
The % increase in counts in the presence of test compound at a particular concentration indicates the % increase in enzyme activity at that concentration.

T1 sequence (Q08499 1-745 isoform Q08499-6): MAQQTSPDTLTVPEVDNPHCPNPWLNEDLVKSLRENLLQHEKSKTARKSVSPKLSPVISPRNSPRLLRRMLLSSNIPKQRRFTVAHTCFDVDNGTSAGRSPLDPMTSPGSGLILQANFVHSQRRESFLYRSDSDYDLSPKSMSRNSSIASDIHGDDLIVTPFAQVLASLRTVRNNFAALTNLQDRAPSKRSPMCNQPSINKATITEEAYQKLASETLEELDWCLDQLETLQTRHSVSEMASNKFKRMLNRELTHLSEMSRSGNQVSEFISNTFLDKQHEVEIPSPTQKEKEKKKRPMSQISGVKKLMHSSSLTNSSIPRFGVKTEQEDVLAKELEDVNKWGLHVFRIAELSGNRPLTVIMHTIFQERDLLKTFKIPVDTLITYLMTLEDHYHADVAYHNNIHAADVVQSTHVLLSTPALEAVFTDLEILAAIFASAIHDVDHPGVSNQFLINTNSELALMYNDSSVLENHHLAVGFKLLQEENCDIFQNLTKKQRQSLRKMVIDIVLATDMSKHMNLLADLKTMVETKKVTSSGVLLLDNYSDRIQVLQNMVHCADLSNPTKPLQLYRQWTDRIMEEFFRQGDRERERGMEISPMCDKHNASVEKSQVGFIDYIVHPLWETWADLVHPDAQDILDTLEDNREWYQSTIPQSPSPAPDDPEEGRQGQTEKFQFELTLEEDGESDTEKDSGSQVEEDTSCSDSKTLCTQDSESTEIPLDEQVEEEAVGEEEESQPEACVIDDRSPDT

- activation at 30 µM (PDE4D5): 106%
SMILES: O=C(N[C@H]1CCOc2ccccc21)c1ccc2nc(-c3ccncc3)sc2c1 [Example 54, (S)-N-(chroman-4-yl)-2-(pyridin-4-yl)benzo[d]thiazole-6-carboxamide]

- activation at 30 µM (PDE4D5): 49%
SMILES: Cc1cnccc1-c1nc2ccc(C(=O)N[C@H]3CCOc4ccccc43)cc2s1 [Example 55, (S)-N-(chroman-4-yl)-2-(3-methylpyridin-4-yl)benzo[d]thiazole-6-carboxamide]
- activity at 10 µM (m-IMCD3 cells): 18%

- activation at 30 µM (PDE4D5): 107%
SMILES: Cc1cc(-c2nc3ccc(C(=O)N[C@H]4CCOc5ccccc54)cc3s2)ccn1 [Example 56, (S)-N-(chroman-4-yl)-2-(2-methylpyridin-4-yl)benzo[d]thiazole-6-carboxamide]
- activity at 10 µM (m-IMCD3 cells): 10%

- activation at 30 µM (PDE4D5): 100%
SMILES: Cn1cc(-c2nc3ccc(C(=O)N[C@H]4CCOc5ccccc54)cc3s2)cn1 [Example 57, (S)-N-(chroman-4-yl)-2-(1-methyl-1H-pyrazol-4-yl)benzo[d]thiazole-6-carboxamide]

- activation at 30 µM (PDE4D5): 101%
SMILES: Cc1cnn(C)c1-c1nc2ccc(C(=O)N[C@H]3CCOc4ccccc43)cc2s1 [Example 58, (S)-N-(chroman-4-yl)-2-(1,4-dimethyl-1H-pyrazol-5-yl)benzo[d]thiazole-6-carboxamide]

- activation at 30 µM (PDE4D5): 77%
SMILES: Cc1nn(C)c(C)c1-c1nc2ccc(C(=O)N[C@H]3CCOc4ccccc43)cc2s1 [Example 59, (S)-N-(chroman-4-yl)-2-(1,3,5-trimethyl-1H-pyrazol-4-yl)benzo[d]thiazoIe-6-carboxamide]
- activity at 10 µM (m-IMCD3 cells): 20%

- activation at 30 µM (PDE4D5): 122%
SMILES: Cc1c(-c2nc3ccc(C(=O)N[C@H]4CCOc5ccccc54)cc3s2)cnn1C [Example 60, (S)-N-(chroman-4-yl)-2-(1,5-dimethyl-1H-pyrazol-4-yl)benzo[d]thiazole-6-carboxamide]

- activation at 30 µM (PDE4D5): 124%
SMILES: Cc1nn(C)cc1-c1nc2ccc(C(=O)N[C@H]3CCOc4ccccc43)cc2s1 [Example 61, (S)-N-(chroman-4-yl)-2-(1,3-dimethyl-1H-pyrazol-4-yl)benzo[d]thiazole-6-carboxamide]
- activity at 10 µM (m-IMCD3 cells): 8%

- activation at 30 µM (PDE4D5): 133%
SMILES: O=C(N[C@H]1CCOc2ccccc21)c1ccc2nc(-c3cncc(CO)c3)sc2c1 [Example 62, (S)-N-(chroman-4-yl)-2-(5-(hydroxymethyl)pyridin-3-yl)benzo[d]thiazole-6-carboxamide]

- activation at 30 µM (PDE4D5): 110%
SMILES: O=C(N[C@H]1CCOc2ccccc21)c1ccc2nc(-c3cncc(C(F)F)c3)sc2c1 [Example 63, (S)-N-(chroman-4-yl)-2-(5-(difluoromethyl)pyridin-3-yl)benzo[d]thiazole-6-carboxamide]
- activity at 10 µM (m-IMCD3 cells): 16%

- activation at 30 µM (PDE4D5): 64%
SMILES: O=C(N[C@H]1CCOc2ccccc21)c1ccc2nc(-c3ccc(C(F)F)nc3)sc2c1 [Example 64, (S)-N-(chroman-4-yl)-2-(6-(difluoromethyl)pyridin-3-yl)benzo[d]thiazole-6-carboxamide]

- activation at 30 µM (PDE4D5): 78%
- Activation of PDE4D5 (FIG. 1) (PDE4D5; concentration response, result in words): concentration-dependent activation
SMILES: Cc1ccncc1-c1nc2cc(C(=O)N[C@H]3CCOc4ccccc43)ccc2s1 [Example 66, (S)-N-(chroman-4-yl)-2-(4-methylpyridin-3-yl)benzo[d]thiazole-5-carboxamide]

- activation at 30 µM (PDE4D5): 89%
SMILES: O=C(N[C@H]1CCOc2ccccc21)c1ccc2sc(-c3cccnc3)nc2c1 [Example 67, (S)-N-(chroman-4-yl)-2-(pyridin-3-yl)benzo[d]thiazole-5-carboxamide]

- activation at 30 µM (PDE4D5): 32%
SMILES: CCN1CCN(c2nc3ccc(C(=O)N[C@H]4CCOc5ccccc54)cc3s2)CC1 [Example 72, (S)-N-(chroman-4-yl)-2-(4-ethylpiperazin-1-yl)benzo[d]thiazole-6-carboxamide]

- activation at 30 µM (PDE4D5): 57%
SMILES: O=C(N[C@H]1CCOc2ccccc21)c1ccc2nc(N3CCCCC3)sc2c1 [Example 76, (S)-N-(chroman-4-yl)-2-(piperidin-1-yl)benzo[d]thiazole-6-carboxamide]

Continued, compound first:

SMILES: Cc1ncccc1-c1nc2ccc(C(=O)NCc3ccc(Cl)cc3)cc2s1 [Example 1, N-(4-chlorobenzyl)-2-(2-methylpyridin-3-yl)benzo[d]thiazole-6-carboxamide]
- activity at 10 µM (m-IMCD3 cells): -7%
- activation at 30 µM (PDE4D5): 48%

SMILES: Cc1ccc(-c2nc3ccc(C(=O)N[C@H]4CCOc5ccccc54)cc3s2)cn1 [Example 24, (S)-N-(chroman-4-yl)-2-(6-methylpyridin-3-yl)benzo[d]thiazole-6-carboxamide]
- activation at 30 µM (PDE4D5): 97%

SMILES: O=C(N[C@H]1CCOc2ccccc21)c1ccc2nc(-c3ccc(C(F)(F)F)nc3)sc2c1 [Example 25, (S)-N-(chroman-4-yl)-2-(6-(trifluoromethyl)pyridin-3-yl)benzo[d]thiazole-6-carboxamide]
- activity at 10 µM (m-IMCD3 cells): 23%
- activation at 30 µM (PDE4D5): 37%

SMILES: Cc1ccc(-c2nc3ccc(C(=O)N[C@H]4CCOc5ccccc54)cc3s2)c(C)n1 [Example 26, (S)-N-(chroman-4-yl)-2-(2,6-dimethylpyridin-3-yl)benzo[d]thiazole-6-carboxamide]
- activation at 30 µM (PDE4D5): 88%

SMILES: O=C(N[C@H]1CCOc2ccccc21)c1ccc2nc(-c3ccc(C4CC4)nc3)sc2c1 [Example 27, (S)-N-(chroman-4-yl)-2-(6-cyclopropylpyridin-3-yl)benzo[d]thiazole-6-carboxamide]
- activation at 30 µM (PDE4D5): 154%

SMILES: Cc1cncc(-c2nc3ccc(C(=O)N[C@H]4c5ccccc5C[C@@H]4O)cc3s2)c1 [Example 41, N-((1S,2S)-2-hydroxy-2,3-dihydro-1H-inden-1-yl)-2-(5-methylpyridin-3-yl)benzo[d]thiazole-6-carboxamide]
- activation at 30 µM (PDE4D5): 194%

SMILES: Cc1cncc(-c2nc3ccc(C(=O)N[C@@H]4c5ccccc5C[C@H]4O)cc3s2)c1 [Example 42, N-((1R,2R)-2-hydroxy-2,3-dihydro-1H-inden-1-yl)-2-(5-methylpyridin-3-yl)benzo[d]thiazole-6-carboxamide]
- activation at 30 µM (PDE4D5): 138%

SMILES: Cc1cncc(-c2nc3ccc(C(=O)N[C@H]4CCCc5ccccc54)cc3s2)c1 [Example 44, (S)-2-(5-methylpyridin-3-yl)-N-(1,2,3,4-tetrahydronaphthalen-1-yl)benzo[d]thiazole-6-carboxamide]
- activation at 30 µM (PDE4D5): 87%

SMILES: Cc1cncc(-c2nc3ccc(C(=O)N[C@H]4CCOc5ccccc54)cc3s2)c1 [Example 45, (S)-N-(chroman-4-yl)-2-(5-methylpyridin-3-yl)benzo[d]thiazole-6-carboxamide]
- activation at 30 µM (PDE4D5): 102%

SMILES: O=C(N[C@H]1CCOc2ccccc21)c1ccc2nc(-c3cncc(C(F)(F)F)c3)sc2c1 [Example 47, (S)-N-(chroman-4-yl)-2-(5-(trifluoromethyl)pyridin-3-yl)benzo[d]thiazole-6-carboxamide]
- activity at 10 µM (m-IMCD3 cells): 12%
- activation at 30 µM (PDE4D5): 102%

SMILES: O=C(N[C@H]1CCOc2ccccc21)c1ccc2nc(-c3cncc(C4CC4)c3)sc2c1 [Example 48, (S)-N-(chroman-4-yl)-2-(5-cyclopropylpyridin-3-yl)benzo[d]thiazole-6-carboxamide]
- activity at 10 µM (m-IMCD3 cells): 14%
- activation at 30 µM (PDE4D5): 135%

SMILES: CC(C)c1cncc(-c2nc3ccc(C(=O)N[C@H]4CCOc5ccccc54)cc3s2)c1 [Example 49, (S)-N-(chroman-4-yl)-2-(5-isopropylpyridin-3-yl)benzo[d]thiazole-6-carboxamide]
- activity at 10 µM (m-IMCD3 cells): 9%
- activation at 30 µM (PDE4D5): 131%
